# Experimental data as given in patent EP0726072A2, “Composition for the treatment of hypertension and congestive heart failure, containing an angiotensin II antagonist and an endopeptidase inhibitor” (BRISTOL-MYERS SQUIBB COMPANY, priority 1995, dated 1996).
# Test system: 1K1C hypertensive dogs
# Test: Haemodynamic, renal and hormonal effects in conscious 1-kidney-1-clip hypertensive dogs
# Assay type: in vivo
# Method: The studies described in this experiment were conducted in dogs that had been rendered hypertensive by prior unilateral nephrectomy and constriction of the remaining renal artery. This model is characterized by normal basal levels of plasma renin activity and is relatively resistant to the anti-hypertensive activity of angiotensin converting enzyme inhibitors and AT1 receptor antagonists.
# The following experiments were conducted in fasted 1K1C hypertensive dogs lightly restrained in standard canine slings. An indwelling arterial catheter was accessed via a subcutaneous port for measurement of blood pressure via a Gould-Statham pressure transducer. Mean arterial pressure (MAP) was continuously recorded on a Gould chart writer and stored electronically using a Po-Ne-Mah data acquisition system. During each study, urine was collected at 20 minute intervals via a Foley bladder catheter for determination of urine volume. The concentrations of urinary sodium and potassium were measured using ion-selective electrodes and their rates of urinary excretion (µEq/min) were calculated. Glomerular filtration rate (GFR) and effective renal plasma flow (ERPF) were determined by the renal clearances of exogenous creatinine and para-aminohippuric acid (PAH), respectively. The concentrations of creatinine and PAH in sequential samples of urine and plasma were determined by spectrophotometric assays and the clearances were calculated by the standard formula.
# Arterial blood samples were drawn at the end of the control period and at 60 minute intervals thereafter for determination of the plasma concentrations of atrial natriuretic peptide (ANP), cyclic GMP and plasma renin activity (PRA) by separate radioimmunoassays. The plasma and urine samples were preserved and the assays were conducted according to standard radioimmunoassay procedures. Urinary excretion rates of cyclic GMP and ANP were calculated and expressed as pmol/min and fmol/min, respectively.
# In each study, baseline measurements were obtained during two 20 minute control periods. One of the treatments was then administered and sampling continued at 20 minute intervals for three hours.
# To minimize inter-animal variability, each data point was expressed as the change from the average control value for that parameter. Significant differences among treatments were identified by analysis of variance for repeated measures. […] Results are given as mean ± SEM.
# [1] = 20 min after treatment, 30 µmol/kg iv of each agent
# [2] = 40 min after treatment, 30 µmol/kg iv of each agent
# [3] = 60 min after treatment, 30 µmol/kg iv of each agent
# [4] = 80 min after treatment, 30 µmol/kg iv of each agent
# [5] = 100 min after treatment, 30 µmol/kg iv of each agent
# [6] = 120 min after treatment, 30 µmol/kg iv of each agent
# [7] = 140 min after treatment, 30 µmol/kg iv of each agent
# [8] = 160 min after treatment, 30 µmol/kg iv of each agent
# [9] = 180 min after treatment, 30 µmol/kg iv of each agent
smiles,measurement,setting,value
"CCCCC1=NC2(CCCC2)C(=O)N1Cc1ccc(-c2ccccc2-c2nnn[nH]2)cc1 [BMS 186295, 2-butyl-6,7,8,9-tetrahydro-3-[[2'-(1H-tetrazol-5-yl)[1,1'-biphenyl]-4-yl]-methyl]-1,3-diazaspiro[4.4]nonan-4-one]",increase in the amount of sodium excreted during the 3 hours after injection,"30 µmol/kg iv of each agent, cumulative over 3 hours",5.4±1.0 mEq/3 hr
same,"ANP Excretion, Change from control",[1],-0.7 ± 0.5 fmol/min
same,"Cyclic GMP Excretion, Change from control",[1],-372 ± 240 pmol/min
same,"Effective Renal Plasma Flow, Change from control",[1],-68 ± 30 mL/min
same,"Glomerular Filtration Rate, Change from control",[1],-4 ± 2 mL/min
same,"Mean Arterial Pressure, Change from control",[1],-1±1 mm Hg
same,"Sodium Excretion, Change from control",[1],23±9 µEq/min
same,"Urine Volume, Change from control",[1],0.01 ± 0.07 mL/min
same,"ANP Excretion, Change from control",[2],-0.6 ± 0.5 fmol/min
same,"Cyclic GMP Excretion, Change from control",[2],-277 ± 255 pmol/min
same,"Effective Renal Plasma Flow, Change from control",[2],-54 ± 35 mL/min
same,"Glomerular Filtration Rate, Change from control",[2],-2 ± 5 mL/min
same,"Mean Arterial Pressure, Change from control",[2],-10±1 mm Hg
same,"Sodium Excretion, Change from control",[2],41±13 µEq/min
same,"Urine Volume, Change from control",[2],0.09 ± 0.14 mL/min
same,"ANP Excretion, Change from control",[3],-0.2 ± 0.3 fmol/min
same,"Cyclic GMP Excretion, Change from control",[3],-150 ± 203 pmol/min
same,"Effective Renal Plasma Flow, Change from control",[3],-35 ± 24 mL/min
same,"Glomerular Filtration Rate, Change from control",[3],6 ± 0 mL/min
same,"Mean Arterial Pressure, Change from control",[3],-8±2 mm Hg
same,"Plasma Renin Activity, Change from control",[3],1.28±0.51 pmol AI/ml/hr
same,"Sodium Excretion, Change from control",[3],36±8 µEq/min
same,"Urine Volume, Change from control",[3],0.12 ± 0.07 mL/min
same,"ANP Excretion, Change from control",[4],-0.4 ± 0.3 fmol/min
same,"Cyclic GMP Excretion, Change from control",[4],-309 ± 199 pmol/min
same,"Effective Renal Plasma Flow, Change from control",[4],-13 ± 9 mL/min
same,"Glomerular Filtration Rate, Change from control",[4],5 ± 2 mL/min
same,"Mean Arterial Pressure, Change from control",[4],-5±2 mm Hg
same,"Sodium Excretion, Change from control",[4],27±6 µEq/min
same,"Urine Volume, Change from control",[4],0.05 ± 0.06 mL/min
same,"ANP Excretion, Change from control",[5],-0.6 ± 0.4 fmol/min
same,"Cyclic GMP Excretion, Change from control",[5],-266 ± 193 pmol/min
same,"Effective Renal Plasma Flow, Change from control",[5],-1 ± 10 mL/min
same,"Glomerular Filtration Rate, Change from control",[5],3 ± 4 mL/min
same,"Mean Arterial Pressure, Change from control",[5],-4±1 mm Hg
same,"Sodium Excretion, Change from control",[5],22±3 µEq/min
same,"Urine Volume, Change from control",[5],-0.02 ± 0.09 mL/min
same,"ANP Excretion, Change from control",[6],-0.5 ± 0.4 fmol/min
same,"Cyclic GMP Excretion, Change from control",[6],-283 ± 236 pmol/min
same,"Effective Renal Plasma Flow, Change from control",[6],-8 ± 17 mL/min
same,"Glomerular Filtration Rate, Change from control",[6],4 ± 3 mL/min
same,"Mean Arterial Pressure, Change from control",[6],-1±2 mm Hg
same,"Plasma Renin Activity, Change from control",[6],1.49±0.57 pmol AI/ml/hr
same,"Sodium Excretion, Change from control",[6],30±4 µEq/min
same,"Urine Volume, Change from control",[6],-0.02 ± 0.10 mL/min
same,"ANP Excretion, Change from control",[7],-0.6 ± 0.4 fmol/min
same,"Cyclic GMP Excretion, Change from control",[7],-449 ± 206 pmol/min
same,"Effective Renal Plasma Flow, Change from control",[7],8 ± 3 mL/min
same,"Glomerular Filtration Rate, Change from control",[7],0 ± 5 mL/min
same,"Mean Arterial Pressure, Change from control",[7],-1±2 mm Hg
same,"Sodium Excretion, Change from control",[7],28±7 µEq/min
same,"Urine Volume, Change from control",[7],-0.07 ± 0.12 mL/min
same,"ANP Excretion, Change from control",[8],-0.5 ± 0.4 fmol/min
same,"Cyclic GMP Excretion, Change from control",[8],-391 ± 199 pmol/min
same,"Effective Renal Plasma Flow, Change from control",[8],-14 ± 12 mL/min
same,"Glomerular Filtration Rate, Change from control",[8],0 ± 7 mL/min
same,"Mean Arterial Pressure, Change from control",[8],0±2 mm Hg
same,"Sodium Excretion, Change from control",[8],30±7 µEq/min
same,"Urine Volume, Change from control",[8],-0.07 ± 0.16 mL/min
same,"ANP Excretion, Change from control",[9],-0.6 ± 0.4 fmol/min
same,"Cyclic GMP Excretion, Change from control",[9],-611 ± 346 pmol/min
same,"Effective Renal Plasma Flow, Change from control",[9],-12 ± 11 mL/min
same,"Glomerular Filtration Rate, Change from control",[9],0 ± 4 mL/min
same,"Mean Arterial Pressure, Change from control",[9],-1±3 mm Hg
same,"Plasma Renin Activity, Change from control",[9],1.24±0.62 pmol AI/ml/hr
same,"Sodium Excretion, Change from control",[9],30±2 µEq/min
same,"Urine Volume, Change from control",[9],-0.02 ± 0.07 mL/min
same,ANP Excretion,"Control, before treatment",1.5 ± 0.6 fmol/min
same,Cyclic GMP Excretion,"Control, before treatment",1122 ± 389 pmol/min
same,Effective Renal Plasma Flow,"Control, before treatment",127 ± 41 mL/min
same,Glomerular Filtration Rate,"Control, before treatment",45 ± 10 mL/min
same,Mean Arterial Pressure,"Control, before treatment",157±7 mm Hg
same,Plasma Renin Activity,"Control, before treatment",0.55±0.07 pmol AI/ml/hr
same,Sodium Excretion,"Control, before treatment",18±2 µEq/min
same,Urine Volume,"Control, before treatment",0.43 ± 0.16 mL/min
same,"sodium excretion, effect in words","summary of TABLE 2, 30 µmol/kg iv of each agent, 3 hours",increased
same,"urine volume, effect in words","summary of TABLE 3, 30 µmol/kg iv of each agent, 3 hours",increased
same,"Urinary excretion of ANP, effect in words","summary of TABLE 6, 30 µmol/kg iv of each agent",did not affect
same,"PRA, effect in words","summary of TABLE 8, 30 µmol/kg iv of each agent",significantly increased
same,"mean arterial pressure (MAP), effect in words","summary of Table 1, 30 µmol/kg iv of each agent, 3 hours",signigicantly reduced
